# Experimental data from paper PMC6494957 (Frontiers in Microbiology, 2019).
# Read-outs that look alike come from different tables or passages of the source.
# Legend:
# [1] = tested on: A. baumannii ATCC 19606; assay: microbe, parasite or virus in culture; details: for MIC: Acinetobacter baumannii
# Protocol: (§1) The MIC for ampicillin or gentamicin against each isolate was determined for each test to serve as an internal quality control. The MICs of isolates were determined by visual reading and using an EnSpire Multimode Plate Reader 2300 atA600nm.
# (§2) Briefly, antimicrobial stock solutions for robenidine and PMBN were prepared at a concentration of 12.8 mg/ml in DMSO. […] A 1 μl aliquot of the first compound from each combination was dispensed along the abscissa (from row A to G) of the 96-well microplate, while the second compound was dispensed along the ordinate (from column 12 to column 3) using an electronic multichannel pipette followed by 89 μl of LB broth. Each well of the plate was inoculated with an aliquot of 10 μl bacterial suspension at a concentration of 1-5 × 10^6 colony forming units (CFU) per ml. Subsequently, the plate was incubated at 37°C for 24 h. The fractional inhibitory concentration index (FICI) described the results of the combinations, and was calculated utilizing the following formula:
# (§3) DRI = MIC of drug alone/MIC of drug in combination
# [2] = tested on: E. coli ATCC 25922; assay: microbe, parasite or virus in culture; details: for MIC: Escherichia coli
# Protocol: as §1, §2, §3
# [3] = tested on: K. pneumoniae ATCC 13883; assay: microbe, parasite or virus in culture; details: for MIC: Klebsiella pneumoniae
# Protocol: as §1, §2, §3
# [4] = tested on: S. pseudintermedius (n = 20) clinical isolates from otitis externa cases in dogs; assay: MIC/MBC and checkerboard, canine otitis externa isolates; type: cell-based, Staphylococcus pseudintermedius; details: for MIC50 / MIC90: Staphylococcus pseudintermedius
# Excerpt: (§4) Escherichia coli ATCC 25922, E. coli ATCC 11229, P. aeruginosa ATCC 27853, P. aeruginosa PA01, Pseudomonas putida ATCC 17428, P. mirabilis ATCC 43071, K. pneumoniae ATCC 13883, A. baumannii ATCC 19606, and A. baumannii ATCC 12457 were used for preliminary susceptibility testing and combination experiments. S. aureus ATCC 29213 and S. pneumoniae ATCC 49619 were used as internal quality controls. A variety of bacterial organisms from both human and canine infections were investigated in this study (n = 119 isolates in total). Twenty-eight clinical Acinetobacter spp. isolates were obtained from cases of human skin and soft tissue infections, including 18 Acinetobacter baumannii and 10 A. calcoaceticus, kindly provided by a person (Institute of Medical and Veterinary Science, South Australia). […] Ninety-one clinical isolates were obtained from cases of canine otitis externa, including seven methicillin-susceptible S. pseudintermedius (MSSP), 13 multidrug- and methicillin-resistant S. pseudintermedius (MRSP) ([Saputra et al., 2017]), 20 beta-haemolytic Streptococcus spp., 30 P. aeruginosa (10 of them resistant to gentamicin and 21 P. mirabilis isolates). These isolates were obtained from the bacterial collection of the national survey of antimicrobial resistance in animals conducted in Australia. Swab samples from dogs with signs of otitis externa were collected by veterinarians and submitted to government, private or university diagnostic laboratories throughout Australia. After routine bacterial identification and the removal of confidential information, the participating veterinary diagnostic laboratories submitted the bacteria and their clinical information to PC2 Laboratories, Australian Centre for Antimicrobial Resistance Ecology, School of Animal and Veterinary Sciences, University of Adelaide, Roseworthy Campus, Roseworthy, SA, Australia, for further study. Thus, animal ethics approval was not required in this study. These organisms were identified to species level using biochemical testing and MALDI-TOF mass spectrometry (Bruker, Preston, VIC, Australia).
# as §1
# (§5) Briefly, 10 μl aliquots from each duplicate well from the MIC assays (starting from the MIC for each compound) were inoculated onto a sheep blood agar (SBA) plate and incubated at 37°C.
# as §2, §3
# [5] = tested on: P. aeruginosa (n = 30) clinical isolates from otitis externa cases in dogs; assay: as above; type: cell-based, Pseudomonas aeruginosa; details: for MIC50 / MIC90: Pseudomonas aeruginosa
# Excerpt: as §4, §1, §5, §2, §3
# [6] = canine otitis externa, read-out: MIC50, single drug
# [7] = canine otitis externa, read-out: MIC90, single drug
# [8] = read-out: MIC50, single drug (mM in parentheses)
# [9] = read-out: MIC90, single drug (mM in parentheses)
# [10] = concentration of the labelled component
structure (smiles),measurement,setting,value
"O=C(O)CN(CCN(CC(=O)O)CC(=O)O)CC(=O)O [EDTA, ethylenediaminetetraacetic acid]",MIC in combination EDTA:ROB,"[1]; A. baumannii ATCC 19606, concentration of the labelled component",190 µg/mL
same,MIC,"[1]; ATCC19606, read-out: MIC, single drug",380 µg/mL
same,MIC,"[1]; ATCC19606, read-out: MIC, single drug (mM in parentheses)",1 mM
same,DRI EDTA:ROB,"[2]; E. coli ATCC 25922, DRI of the labelled component",4
same,MIC in combination EDTA:ROB (mM in parentheses),"[2]; E. coli ATCC 25922, EDTA component",2.5 mM
same,MIC in combination EDTA:ROB,"[2]; E. coli ATCC 25922, concentration of the labelled component",950 µg/mL
same,MIC,"[2]; ATCC25922, read-out: MIC, single drug",3800 µg/mL
same,MIC,"[2]; ATCC25922, read-out: MIC, single drug (mM in parentheses)",10 mM
same,DRI EDTA:ROB,"[3]; K. pneumoniae ATCC 13883, DRI of the labelled component",3
same,MIC in combination EDTA:ROB (mM in parentheses),"[3]; K. pneumoniae ATCC 13883, EDTA component",10 mM
same,MIC in combination EDTA:ROB,"[3]; K. pneumoniae ATCC 13883, concentration of the labelled component",3800 µg/mL
same,MIC,"[3]; ATCC13883, read-out: MIC, single drug",11400 µg/mL
same,MIC,"[3]; ATCC13883, read-out: MIC, single drug (mM in parentheses)",30 mM
same,"MBC/MIC row, EDTA in combination",[4],750 µg/mL
same,"MBC/MIC row, EDTA in combination (mM in parentheses)",[4],2 mM
same,"MIC range, single drug (mM in parentheses)",[4],0.25 to 1 mM
same,"MIC50, in combination of EDTA and ROB (mM in parentheses)",[4]; EDTA component,0.25 mM
same,"MIC90, in combination of EDTA and ROB (mM in parentheses)",[4]; EDTA component,0.25 mM
same,"MIC range, in combination of EDTA and ROB (mM in parentheses)",[4]; EDTA component,0.25 mM
same,MIC50,[4]; [6],190 µg/mL
same,MIC90,[4]; [7],190 µg/mL
same,MIC50,[4]; [8],0.5 mM
same,MIC90,[4]; [9],0.5 mM
same,"MIC range, single drug",[4]; canine otitis externa,95 to 380 µg/mL
same,"MIC50, in combination of EDTA and ROB",[4]; [10],95 µg/mL
same,"MIC90, in combination of EDTA and ROB",[4]; [10],95 µg/mL
same,"MIC range, in combination of EDTA and ROB",[4]; [10],95 µg/mL
same,"MBC/MIC row, EDTA in combination",[5],750 µg/mL
same,"MBC/MIC row, EDTA in combination (mM in parentheses)",[5],2 mM
same,"MIC range, single drug (mM in parentheses)",[5],2 to 12 mM
same,"MIC50, in combination of EDTA and ROB (mM in parentheses)",[5]; EDTA component,4 mM
same,"MIC90, in combination of EDTA and ROB (mM in parentheses)",[5]; EDTA component,4 mM
same,"MIC range, in combination of EDTA and ROB (mM in parentheses)",[5]; EDTA component,1 to 4 mM
same,MIC50,[5]; [6],3000 µg/mL
same,MIC90,[5]; [7],3000 µg/mL
same,MIC50,[5]; [8],8 mM
same,MIC90,[5]; [9],8 mM
same,"MIC range, single drug",[5]; canine otitis externa,750 to 4500 µg/mL
same,"MIC50, in combination of EDTA and ROB",[5]; [10],1500 µg/mL
same,"MIC90, in combination of EDTA and ROB",[5]; [10],1500 µg/mL
same,"MIC range, in combination of EDTA and ROB",[5]; [10],380 to 1500 µg/mL
